How the values were obtained:
Assay in all cases: Anti-proliferative assay (Oncodesign)
Format in all cases: cell-based
PANC-1 = details: Homo sapiens; PANC-1 (PANCREAS); read-out: IC50 (Concentration of test compound)
Protocol: (§1) The anti-proliferative activities of the parent compounds of the pro-drugs of the invention may be determined by measuring the ability of the compounds to inhibition of cell growth in a number of cell lines such as the human colon cancer cell line HCT116. Inhibition of cell growth is measured using the Alamar Blue assay (Nociari, M. M, Shalev, A., Benias, P., Russo, C. Journal of Immunological Methods 1998, 213, 157-167). The method is based on the ability of viable cells to reduce resazurin to its fluorescent product resorufin. For each proliferation assay cells are plated onto 96 well plates and allowed to recover for 16 hours prior to the addition of inhibitor compounds for a further 72 hours. At the end of the incubation period 10% (v/v) Alamar Blue is added and incubated for a further 6 hours prior to determination of fluorescent product at […]. In the case of the non-proliferating cell assay cells are maintained at confluence for 96 hour prior to the addition of inhibitor compounds for a further 72 hours. The number of viable cells is determined by Alamar Blue assay as before. Cell lines may be obtained from the ECACC (European Collection of cell Cultures).
(§2) The parent compound of the pro-drugs of Examples 1 to 25 i.e. (2,4-dihydroxy-5-isopropyl-phenyl)-[5-(4-methyl-piperazin-1-ylmethyl)-1,3-dihydro-isoindol-2-yl]-methanone, in the form of its L-lactate salt, was tested in anti-proliferative assays against one hundred cell lines by Oncodesign (Dijon, France). The IC50 values against each cell line are set out in the table below and the figures in the table refer to nanomolar concentrations. The compounds were tested up to a concentration of 10,000 nanomolar.

SK-MEL-2 = details: Homo sapiens; SK-MEL-2 (SKIN); read-out: IC50 (Concentration of test compound)
Protocol: as §1, §2

HL-60/R10 = details: Homo sapiens; HL-60/R10 (BLOOD); read-out: IC50 (Concentration of test compound)
Protocol: as §1, §2

KCL-22 = details: Homo sapiens; KCL-22 (BLOOD); read-out: IC50 (Concentration of test compound)
Protocol: as §1, §2

IGROV-1/CDDP = details: Homo sapiens; IGROV-1/CDDP (OVARY); read-out: IC50 (Concentration of test compound)
Protocol: as §1, §2

T24 = details: Homo sapiens, T-24; T24 (URINARY BLADDER); read-out: IC50 (Concentration of test compound)
Protocol: as §1, §2

LB1047-RCC = LB1047-RCC (KIDNEY); read-out: IC50 (Concentration of test compound)
Protocol: as §1, §2

MCF-7/ras = details: Homo sapiens, MCF7; MCF-7/ras (BREAST); read-out: IC50 (Concentration of test compound)
Protocol: as §1, §2

FTC-238 = FTC-238 (THYROID); read-out: IC50 (Concentration of test compound)
Protocol: as §1, §2

BB49-HNSCC = BB49-HNSCC (HEAD AND NECK); read-out: IC50 (Concentration of test compound)
Protocol: as §1, §2

Hep 3B2.1-7 = Hep 3B2.1-7 (LIVER); read-out: IC50 (Concentration of test compound)
Protocol: as §1, §2

CCRF-CEM = details: Homo sapiens; CCRF-CEM (BLOOD); read-out: IC50 (Concentration of test compound)
Protocol: as §1, §2

PA-1 = details: Homo sapiens; PA-1 (OVARY); read-out: IC50 (Concentration of test compound)
Protocol: as §1, §2

LoVo = details: Homo sapiens; LoVo (COLON); read-out: IC50 (Concentration of test compound)
Protocol: as §1, §2

Malme-3M = details: Homo sapiens; Malme-3M (SKIN); read-out: IC50 (Concentration of test compound)
Protocol: as §1, §2

LB796-BLC = LB796-BLC (URINARY BLADDER); read-out: IC50 (Concentration of test compound)
Protocol: as §1, §2

LS 174T = details: Homo sapiens, LS174T; LS 174T (COLON); read-out: IC50 (Concentration of test compound)
Protocol: as §1, §2

Calu-1 = details: Homo sapiens; Calu-1 (LUNG); read-out: IC50 (Concentration of test compound)
Protocol: as §1, §2

BV-173 = details: Homo sapiens; BV-173 (BLOOD); read-out: IC50 (Concentration of test compound)
Protocol: as §1, §2

AGS = details: Homo sapiens; AGS (STOMACH); read-out: IC50 (Concentration of test compound)
Protocol: as §1, §2

Capan-2 = details: Homo sapiens; Capan-2 (PANCREAS); read-out: IC50 (Concentration of test compound)
Protocol: as §1, §2

IGROV-1 = details: Homo sapiens; IGROV-1 (OVARY); read-out: IC50 (Concentration of test compound)
Protocol: as §1, §2

NIH: OVCAR-3/CPT20 = details: Homo sapiens; NIH: OVCAR-3/CPT20 (OVARY); read-out: IC50 (Concentration of test compound)
Protocol: as §1, §2

K-562 = details: Homo sapiens, K562; K-562 (BLOOD); read-out: IC50 (Concentration of test compound)
Protocol: as §1, §2

CMEL-5 = CMEL-5 (SKIN); read-out: IC50 (Concentration of test compound)
Protocol: as §1, §2

CC(C)c1cc(C(=O)N2Cc3ccc(CN4CCN(C)CC4)cc3C2)c(O)cc1O [(2,4-dihydroxy-5-isopropyl-phenyl)-[5-(4-methyl-piperazin-1-ylmethyl)-1,3-dihydro-isoindol-2-yl]-methanone]
IC50 (PANC-1): 0.327 µM | IC50 (SK-MEL-2): 0.138 µM | IC50 (HL-60/R10): 0.847 µM | IC50 (KCL-22): 0.024 µM | IC50 (IGROV-1/CDDP): 0.147 µM | IC50 (T24): 0.852 µM | IC50 (LB1047-RCC): 0.058 µM | IC50 (MCF-7/ras): 0.166 µM | IC50 (FTC-238): 0.026 µM | IC50 (BB49-HNSCC): 0.146 µM | IC50 (Hep 3B2.1-7): 0.095 µM | IC50 (CCRF-CEM): 0.107 µM | IC50 (PA-1): > 10 µM | IC50 (LoVo): 0.051 µM | IC50 (Malme-3M): 0.157 µM | IC50 (LB796-BLC): 0.083 µM | IC50 (LS 174T): 0.159 µM | IC50 (Calu-1): 0.27 µM | IC50 (BV-173): 0.073 µM | IC50 (AGS): 0.066 µM | IC50 (Capan-2): 0.144 µM | IC50 (IGROV-1): 0.109 µM | IC50 (NIH: OVCAR-3/CPT20): > 10 µM | IC50 (K-562): 0.147 µM | IC50 (CMEL-5): 0.13 µM

— patent US8383619B2, “Pharmaceutical compounds” (Astex Therapeutics Limited, priority 2008, dated 2013)
